Assay results taken from patent publication US5480983A, “Adenosine derivatives, preparation methods and pharmaceutical compositions containing them” (Laboratoires UPSA, priority 1992, dated 1996).

Experiments:
[1] = as specified in Biochemical Pharmacology; cited from earlier work
[2] = target: T1, rat central A1 adenosinergic receptors (Rattus norvegicus, UniProt P25099); assay: Binding to adenosine A1 receptors ([3H] PIA displacement); settings: [3H] PIA 2.5 nM, n=3; for inhibition at 10 µM: 1E-5M, read-out: % displacement of the labeled ligand, A1, 1E-5M; for inhibition at 0.1 µM: 1E-7M, read-out: % displacement of the labeled ligand, A1, 1E-7M
T1 construct: After the animal has been sacrificed by decapitation, the brain is quickly removed and washed in cold isotonic solution; from tissue; host or cells: rat brain, membrane preparation from the two hemispheres
T1 sequence (P25099 1-326): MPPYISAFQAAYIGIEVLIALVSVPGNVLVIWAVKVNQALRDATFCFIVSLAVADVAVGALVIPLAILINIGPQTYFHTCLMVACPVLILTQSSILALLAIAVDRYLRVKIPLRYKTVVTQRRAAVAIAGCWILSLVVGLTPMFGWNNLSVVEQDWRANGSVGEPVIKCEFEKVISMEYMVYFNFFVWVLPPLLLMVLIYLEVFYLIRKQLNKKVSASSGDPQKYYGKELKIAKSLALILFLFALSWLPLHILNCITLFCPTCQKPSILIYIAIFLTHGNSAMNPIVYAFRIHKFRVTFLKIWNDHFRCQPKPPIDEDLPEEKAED
Method: (§1) The affinity of the products of the Examples for the rat central A1 and A2 adenosinergic receptors is determined by the competitive technique using a radioactive ligand specifically bound either to the A1 receptors ([^3 H] PIA) or to the A2 receptors ([^3 H] NECA).
After the animal has been sacrificed by decapitation, the brain is quickly removed and washed in cold isotonic solution. The two hemispheres are separated and weighed and each of them is introduced into a polyallomer tube containing 25 volumes of cold homogenization buffer. Homogenization is effected using an Ultra-Turrax for 30 seconds (3 times 10 seconds with 10-second intervals, 70% of the maximum speed). The ground material obtained is centrifuged at 1000 g (≈3000 rpm) for 10 minutes at 4° C.
The supernatant is centrifuged again at 48,000 g (≈20,000 rpm) for 20 minutes at 4° C.
When this step is complete, the residue is taken up with 4 volumes of homogenization buffer, resuspended using a Vortex and homogenized with the Ultra-Turrax. Adenosine deaminase is then added at a rate of 1 U/ml, i.e. 1 μl/ml of homogenate, using a 10 μl Hamilton syringe.
After this treatment, the homogenate is shaken for 30 minutes at room temperature and then centrifuged at […] (≈20,000 rpm) for 30 minutes at 4° C.
The residue obtained is resuspended in 10 volumes of homogenization buffer and passed through the Ultra-Turrax for 20 seconds (2 times 10 seconds with a 10-second interval, 70% of the maximum speed).
The homogenate prepared in this way is used for the competitive tests. It is kept at 4° C. if the studies take place the same day, or stored at -20° C. in the form of 10 ml aliquots.
After the homogenate has been thawed at room temperature, it is passed through a Potter mill (6 manual to-and-fro movements, speed 6), diluted to 2/5 in incubation buffer and placed in a water bath thermostated at 4° C., with shaking, until the end of the experiment.
(§2) 50 μl of [^3 H] PIA at 100 nM, i.e. 2.5 nM in the final reaction medium allowing for the 1/40 dilution, and 50 μl of the product of the Example at the concentrations considered (10^-1 M and 10^-7 M) are introduced into the reaction tubes. The reaction is initiated by the addition of 1 ml of homogenate and 900 μl of incubation buffer. The procedure is identical for all the beta-blockers studied.
(§3) The tubes are shaken and incubated in a water bath at 20° C. for 30 minutes. When the incubation is complete, the contents of the tubes are filtered on Whatman GF/B paper. Each tube is washed twice with 2 ml of rinsing buffer and then the filters themselves are rinsed with 3 ml of this same buffer.
The filters are then transferred to counting flasks and 10 ml of liquid scintillator (Ready Solv HP/b, Beckman) are added.
After they have been shaken, the flasks are stored in a refrigerator overnight and the radio-activity is then determined in a liquid scintillation counter.
(§4) 3 tests are performed for each concentration studied. The non-specific binding of the [^3 H] PIA is assessed by measuring the amount of radioactivity retained on the filter in the presence of 10^-5 M phenylisopropyladenosine (PIA). The value of the non-specific binding is systematically subtracted from that of the tests.
(§5) The results are expressed for each product in the form of the percentage displacement (n=3) of the labeled radioligand at concentrations of 10^-5 M and 10^-7 M.

[3] = target: T2, rat central A2 adenosinergic receptors (Rattus norvegicus, UniProt P30543); assay: Binding to adenosine A2 receptors ([3H] NECA displacement); settings: [3H] NECA 4 nM, n=3; for inhibition at 10 µM: 1E-5M, read-out: % displacement of the labeled ligand, A2, 1E-5M; for inhibition at 0.1 µM: 1E-7M, read-out: % displacement of the labeled ligand, A2, 1E-7M
T2 construct: the striatum is removed from each of them (Bruns et al., 1986); from tissue; host or cells: rat striatum, homogenate (membrane preparation)
T2 sequence (P30543 whole entry): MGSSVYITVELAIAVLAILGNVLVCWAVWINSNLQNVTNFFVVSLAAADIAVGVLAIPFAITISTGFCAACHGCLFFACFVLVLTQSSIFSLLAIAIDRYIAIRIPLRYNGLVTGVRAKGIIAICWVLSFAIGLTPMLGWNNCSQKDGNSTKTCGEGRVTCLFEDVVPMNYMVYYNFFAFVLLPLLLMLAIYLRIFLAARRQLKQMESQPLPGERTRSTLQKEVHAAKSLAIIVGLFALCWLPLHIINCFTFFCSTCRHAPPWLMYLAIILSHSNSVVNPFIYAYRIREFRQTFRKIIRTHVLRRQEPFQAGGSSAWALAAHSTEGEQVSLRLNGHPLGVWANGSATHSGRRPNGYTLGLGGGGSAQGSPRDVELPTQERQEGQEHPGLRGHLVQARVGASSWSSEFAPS
Method: as §1
Method of studying the A2 receptors Membrane preparation
After decapitation of the animal, the brain is quickly removed and washed in cold isotonic solution. The two hemispheres are separated and the striatum is removed from each of them (Bruns et al., 1986), weighed and introduced into a polyallomer tube containing 10 volumes of cold homogenization buffer. The tissue is homogenized with an Ultra-Turrax for 30 seconds (3 times 10 seconds with 10-second intervals, 70% of the maximum speed). The ground material is centrifuged at 50,000 g (≈20,500 rpm) for 10 minutes at 4° C.
The residue obtained is resuspended in 10 volumes of homogenization buffer using a Vortex and homogenized with the Ultra-Turrax (5 to 10 seconds, 70% of the maximum speed).
Adenosine deaminase is then added at a rate of 1 U/ml, i.e. 1 μl/ml of homogenate, using a 10 μl Hamilton syringe. The homogenate treated in this way is shaken at room temperature for 30 minutes.
When the incubation is complete, the homogenate is centrifuged at 50,000 g (≈20,500 rpm) for 10 minutes at 4° C.
The residue is taken up with 5 volumes of cold homogenization buffer and passed through the Ultra-Turrax (2 times 10 seconds with a 10-second interval, 70% of the maximum speed) and the homogenate prepared in this way is finally frozen at -70° C. Competitive test
After the homogenate has been thawed at room temperature, 15 volumes of incubation buffer are added. The homogenate is shaken on a Vortex, passed through a Potter mill (6 to-and-fro movements, speed 6), diluted to 1/10 in incubation buffer and finally placed in a water bath thermostated at 4° C., with shaking, until the end of the experiment.
as §2, with “NECA” for “PIA”, “160” for “100”, “4” for “2.5”, “(10^-5” for “(10^-1”, “similar” for “identical”, “compounds” for “beta-blockers”
as §3, with “25°” for “20°”, “60” for “30”, “buffer before being transferred to counting flasks.” for “buffer.”
10 ml of liquid scintillator (Ready Solv HP/b, Beckman) are added to all the flasks. These are shaken and stored in a refrigerator overnight. The radioactivity is determined in a liquid scintillation counter.
as §4, with “NECA” for “PIA”, “determined” for “assessed”, “5 μM N-ethylcarboxamidoadenosine (NECA).” for “10^-5 M phenylisopropyladenosine (PIA).”
as §5

[4] = Phenylbenzoquinone test (analgesic activity); format: in vivo; settings: Mus musculus, 1 h; mice; oral, one hour before phenylbenzoquinone i.p.; 5 minutes observation; read-out: Phenylbenzoquinone test 50% inhibitory dose
Method: 2. Phenylbenzoquinone test
The intraperitoneal injection of phenylbenzoquinone causes twisting and stretching movements in mice. Analgesics prevent or reduce this syndrome, which can be considered as the exteriorization of diffuse abdominal pain.
A 0.02% solution of phenylbenzoquinone in water is administered in a volume of 1 ml/100 g.
The products of the Examples are administered orally one hour before the injection of phenylbenzoquinone.
The stretching and twisting movements are counted for each mouse over an observation period of 5 minutes.

[5] = test system: platelet aggregation; settings: as described in Journal of Medicinal Chemistry; cited from earlier work

Structure (SMILES) | antilipolytic activity [1] | inhibition at 10 µM [2] | inhibition at 0.1 µM [2] | inhibition at 10 µM [3] | inhibition at 0.1 µM [3] | ED50 [4] | platelet aggregation inhibiting activity [5]
COc1ccc2[nH]cc(CCNc3ncnc4c3ncn4[C@@H]3O[C@H](CO)[C@@H](O)[C@H]3O)c2c1 [derivative B] | antilipolytic activity |  |  |  |  |  | 
CC(Cc1cn(C2CCCC2)c2ccccc12)Nc1ncnc2c1ncn2[C@@H]1O[C@H](C(=O)NC2CC2)[C@@H](O)[C@H]1O (stereo partly drawn) [Example 93, β-D-Ribofuranuronamido-N-cyclopropyl-1-deoxy-1-[6-[[1-[1-cyclopentylindol-3-yl]-propan-2-yl]amino]-9H-purin-9-yl]] |  | 96% | 45% | 85% | 22% | 2 mg/kg | 
COc1ccc2c(c1)c(CCNc1ncnc3c1ncn3[C@@H]1O[C@H](C(=O)NC3CC3)[C@@H](O)[C@H]1O)cn2Cc1cc(C)ccc1C [Example 86, β-D-Ribofuranuronamido-N-cyclopropyl-1-deoxy-1-[6-[[2-[1-(2,5-dimethylbenzyl)-5-methoxyindol-3-yl]ethyl]amino]-9H-purin-9-yl]] |  | 100% | 16% | 91% | 17% | ~60 mg/kg | 
Cc1ccc(C)c(Cn2cc(CCNc3ncnc4c3ncn4[C@@H]3O[C@H](C(=O)NC4CC4)[C@@H](O)[C@H]3O)c3cc(C)ccc32)c1 [Example 85, β-D-Ribofuranuronamido-N-cyclopropyl-1-deoxy-1-[6-[[2-[1-(2,5-dimethylbenzyl)-5-methylindol-3-yl]ethyl]amino]-9H-purin-9-yl]] |  | 100% | 50% | 71% | 3% | 0.9 mg/kg | 
CC(C)n1cc(CCNc2ncnc3c2ncn3[C@@H]2O[C@H](C(=O)NC3CC3)[C@@H](O)[C@H]2O)c2ccccc21 [Example 65, β-D-Ribofuranuronamido-N-cyclopropyl-1-deoxy-1-[6-[[2-[1-isopropylindol-3-yl]-ethyl]amino]-9H-purin-9-yl]] |  | 87% | 4% | 91% | 14% | 0.3 mg/kg | 
O=C(NC1CC1)[C@H]1O[C@@H](n2cnc3c(NCCc4cn(CCN5CCCCC5)c5ccccc45)ncnc32)[C@H](O)[C@@H]1O [Example 71 (citrate), β-D-ribofuranuronamido-N-cyclopropyl-1-deoxy-1-[6-[[2-[1-(2-N-piperidinoethyl)indol-3-yl]ethyl]amino]-9H-purin-9-yl]citrate] |  | 99% | 91% | 96% | 44% | 7.3 mg/kg | 
Cc1ccc(C)c(Cn2cc(CCNc3ncnc4c3ncn4[C@@H]3O[C@H](C(=O)NC4CC4)[C@@H](O)[C@H]3O)c3ccccc32)c1 [Example 68, β-D-Ribofuranuronamido-N-cyclopropyl-1-deoxy-1-[6-[[2-[1-(2,5-dimethylbenzyl)indol-3-yl]ethyl]amino]-9H-purin-9-yl]] |  | 93% | 26% | 84% | 9% | 2.4 mg/kg | 
COCCn1cc(CCNc2ncnc3c2ncn3[C@@H]2O[C@H](C(=O)NC3CC3)[C@@H](O)[C@H]2O)c2ccccc21 [Example 63, β-D-Ribofuranuronamido-N-cyclopropyl-1-deoxy-1-[6-[[2-[1-(2-methoxyethyl)indol-3-yl]ethyl]amino]-9H-purin-9-yl]] |  | 98% | 61% | 90% | 19% | 10 mg/kg | 
OC[C@H]1O[C@@H](n2cnc3c(NCCc4c[nH]c5ccccc45)ncnc32)[C@H](O)[C@@H]1O [derivative A, N-6-[2-(indol-3-yl)ethyl]adenosine] |  |  |  |  |  |  | platelet aggregation inhibiting activity
